Measurements taken from patent publication EP2177218A1, “Regenerative therapy” (Medizinische Universität Wien, priority 2008, dated 2010).
“Also recorded” adds a separate entry of the source.

What was measured:
OPCs [1] = test: OPC differentiation on myelin protein extract (MPE) or myelin substrate, O4 immunocytochemistry, pharmacological agents; type: cell-based, Sprague-Dawley rat; details: for OPC differentiation / O4 expression in the presence of myelin inhibitors (result in words): differentiation medium; for max. mean increase of OPC differentiation: 48 hours incubation in differentiation medium, Fig. 4; for mean increase of OPC differentiation: OPCs on myelin (MPE)
Procedure: Primary cultures of oligodendrocyte precursor cells were isolated from PO-P2 neonatal Sprague-Dawley rat forebrains following a Standard protocol (McCarthy et al., J Cell Biol 85 (1980): 890-902) that were adapted for the present purpose (Syed et al. 2008, supra). In brief, hemispheres were stripped free of meninges, after a digestion step the cells were plated into cell culture flasks and mixed glia cultures were grown for approx. 10 days in DMEM medium supplemented with 10% PCS at 37°C and 7,5% CO2. To remove the loosely attached microglia the flasks were shaken for 1 hour at 260rpm on an orbital shaker before being shaken at 260rpm overnight to dislodge the loosely attached oligodendrocyte precursors. OPCs were further purified from contaminating microglia by a differential adhesion step. Subsequently OPCs were plated onto polylysine (PLL)-coated or Substrate coated dishes. To maintain cells at an early precursor stage PDGF-AA (Pepro Tech) and FGF (Pepro Tech) were added (10ng/ml) to SATOs medium. To induce differentiation cells were incubated in SATOs medium supplemented with 0.5% FCS. The purity of each culture was monitored following OPC purification by immunocytochemistry and only cultures with >94% purity were used. In the cultures minor contaminations of microglia that can be detected by isolectin staining and which amount to 4-5% of the cells, as well as by astrocytes (detectable by GFAP) and fibroblasts with distinct morphology, which account for about 1-2% of the cells are present.
To prepare myelin protein extract (MPE) the pellets were re-suspended in 1% N-octyl β-D-glucopyranoside, 0.2M Sodiumphosphate pH 6.8, 0.1 M Na2SO4 and 1mM EDTA and incubated at 23°C for 2 hours. Following an ultracentrifugation step (100,000 x g, 18°C, 30 min) the supernatants were collected and stored at -20°C until further usage.
The pooled OPCs harvested as outlined above were seeded at the same density of 20000 cells per well into polylysine (PLL)-coated 8-well chamber slides. Cells were differentiated for 48 hours and subsequently fixed with 4% paraformaldehyde in PBS, permeabilised and blocked with 0.3% Triton X-100 and 10% NGS. To assess the differentiation state of OPCs the cells were incubated with 04 antibody (1:100; Chemicon) for 1 hour in the presence of 0.1% Triton X-100 and 2% NGS, washed, and incubated for another 1 hour with the appropriate fluorescent secondary antibody (Cy3-conjugated antibody 1:100; Jackson Immuno Research) and the nuclei were stained using DAPI (Robinson et al., Dev Biol 216 (1999): 359-368; Syed et al. 2008, supra). It is important to note that permeabilisation of cells results in a punctate representation of the extracellular antigen 04 (Reynolds et al., Curr Opin Biotechnol 4 (1993): 734-738; Weiss et al., J Neurosci 16 (1996): 7599-7609; Syed et al. 2008, supra). Under an Olympus X51 fluorescent microscope using a triple-filter the percentage of O4-positive cells in relation to >100 DAPI-stained nuclei in randomly selected eye fields for each experimental condition were determined. To establish the purity of the OPC cultures immunocytochemistry for A2B5 (1:100; Chemicon) was performed according to the same principles and the percentage of A2B5+ cells to >100 DAPI-stained nuclei in randomly selected eye fields was determined. Only cell cultures with >94% A2B5-pos. cells were used for the present study. To assess the morphological phenotype of OPCs, A2B5+-cells were categorised according to the following criteria: stage 1: mono/bipolar; stage II: multipolar, primary branched; stage III: multipolar, secondary branched; stage IV: secondary branched cells with membranous processes.
To examine whether ROCK-II and PKC Signal transduction is implicated in the myelin mediated differentiation block, pharmacological inhibitors were added to the culture medium immediately after cell seeding. […]

CREB = CREB phosphorylation in OPCs (immunoprecipitation, Western blot for phospho-CREB); type: cell-based, Sprague-Dawley rat; details: in the presence of MAI, Fig. 14
demyelinating lesions = test: Remyelination in vivo after ethidium bromide lesions, blind ranking of semithin resin sections; design: species or system Sprague Dawley rats; details: 0.5 mg/kg/d s.c. osmotic pumps, 14 days post lesion induction, preliminary
Procedure: The in vitro finding that rolipram is able to promote OPC differentiation in the presence of MAI was further developed to confirm remyelination in vivo. For this purpose demyelinating lesions were induced by topic injection of ethidium bromide into white matter tracts of young adult Sprague Dawley rats, and rolipram was applied subcutaneously by continuous osmotic pumps. 0,5mg/KG/d of rolipram was used in the first set of experiments that assessed the rate of remyelination. […] This is the first experiment that succeeded in enhancing the efficiency of remyelination in this model (Fig. 16).

EB lesions = test: In situ hybridisation for cell markers in EB lesions; type: in vivo, Sprague-Dawley rats; details: 0,5mg/KG/d s.c.; for number of active OPCs (Nkx2.2): day 7, vs PBS vehicle; for macrophage marker MRSB (immune response): day 7 and day 14, vs PBS vehicle; for number of PDGFR-α positive OPCs in lesions / number of PLP positive cells (mature oligodendrocytes): day 14, vs PBS vehicle
Procedure: To validate the finding that administration of rolipram promotes CNS remyelination, the experiments were repeated as follows. EB lesions were induced in Sprague-Dawley rats, and rats were treated either with rolipram (0,5mg/KG/d) or PBS vehicle administered via s.c. osmotic pumps implanted 3 days post lesion induction. Animals were sacrificed at day 7 and day 14 post lesion induction and the tissue processed for in situ hybridization. The lesion area was visualized and measured on digitized solochrome cyanine stained sections and the number of cells within the lesion area as detected by ISH was determined.
PDGFR-α, a general marker for OPCs, was used to determine the presence of OPCs in the lesions.
Nkx2.2 can be used to detect activated OPCs within remyelinating lesions.
To detect mature oligodendrocytes, in situ hybridization for PLP was conducted. The extent of remyelination in control animals at 14 days is minimal. As to be expected in control animals the number of PLP positive cells remained unchanged at day 7 and day 14.
Finally, ISH for MRSB, a marker for macrophages, was used to determine whether rolipram treatment affects the immune response.

OPCs [2] = test: TUNEL assay (apoptosis); type: cell-based, Sprague-Dawley rat; details: treated OPCs on MPE vs OPCs on PLL control, Fig. 7
Procedure: Fragmented DNA was detected by incorporation of biotinylated nucleotides at the 3'-OH DNA ends using Terminal Deoxynucleotidyl Transferase recombinant (rTdT) enzyme according to the manufacturer's instruction (Promega). Stained cells were visualized by light microscopy and the percentage of apoptotic nuclei was determined.

## COc1ccc(C2CNC(=O)C2)cc1OC1CCCC1 (centres unmarked) [rolipram]
OPCs [1]; 0.5µM in the medium
  differentiation capability of OPCs plated on MPE: completely restore
OPCs [1]; OPCs on MPE
  OPC differentiation / O4 expression in the presence of myelin inhibitors (result in words): able to induce OPC differentiation; also recorded: able to restore OPC differentiation
CREB
  CREB phosphorylation / activation in OPCs: restores CREB activation
CREB; listed as Rolipram
  CREB phosphorylation / activation in OPCs: inducing CREB phosphorylation
Demyelinating lesions
  extent of remyelination, rank assessment: able to promote remyelination in-vivo; also recorded: potently enhanced
EB lesions
  number of active OPCs (Nkx2.2): effectively increased
  macrophage marker MRSB (immune response): no differences detected
  number of PDGFR-α positive OPCs in lesions: remained elevated
  number of PLP positive cells (mature oligodendrocytes): significant increase
EB lesions; listed as Rolipram
  number of active OPCs (Nkx2.2): increase
  macrophage marker MRSB (immune response): did not affect the immune response
  number of PDGFR-α positive OPCs in lesions: maintained levels
  number of PLP positive cells (mature oligodendrocytes): strong increase
EB lesions; later stages (day 14), vs PBS vehicle
  number of Nkx2.2 positive cells: reached levels of control animals

## CCCC(=O)Nc1ncnc2c1ncn2[C@@H]1O[C@@H]2COP(=O)([O-])O[C@H]2[C@H]1OC(=O)CCC.[Na+] [db-cAMP]
OPCs [1]; OPCs on MPE
  OPC differentiation / O4 expression in the presence of myelin inhibitors (result in words): partially overcome

## 12-(2-cyanoethyl)-6,7,12,13-tetrahydro-13-methyl-5-oxo-5H-indolo[2,3-a]pyrrollo[3,4-c]carbazole [Gö6976]
OPCs [1]; OPCs on MPE
  max. mean increase of OPC differentiation: 269%
OPCs [1]; 50nM, n=3
  mean increase of OPC differentiation: 267%
OPCs [2]
  apoptosis, TUNEL positive cells: no differences

## NCCCCN [putrescine]
OPCs [1]; OPCs on MPE
  OPC differentiation / O4 expression in the presence of myelin inhibitors (result in words): not the case
OPCs [1]; OPCs on MPE, listed as Putrescine
  OPC differentiation / O4 expression in the presence of myelin inhibitors (result in words): does not stimulate OPC differentiation

## O=S(=O)(c1cccc2cnccc12)N1CCCNCC1 [HA-1077, 1-(5-lsoquinolinesulfonyl)-1H-hexahydro-1,4-diazepine 2 HCI]
OPCs [1]; OPCs on MPE, 5µM, 48 hours in differentiation medium, n=4
  mean increase in the number of differentiating OPCs: 174%
OPCs [1]; OPCs on MPE, 48h culture in differentiation medium, Fig. 3b
  increase of differentiating cells: more than 160%
OPCs [1]; OPCs on MPE
  OPC differentiation / O4 expression in the presence of myelin inhibitors (result in words): largely restored
OPCs [2]
  apoptosis, TUNEL positive cells: no significant differences

## [H]/N=C(/N)SCCCn1cc(C2=C(c3cn(C)c4ccccc34)C(=O)NC2=O)c2ccccc21 [BIM, Bisindolylmaleimide IX]
OPCs [1]; OPCs on MPE
  max. mean increase of OPC differentiation: 169%
OPCs [1]; 6.25nM, n=4
  mean increase of OPC differentiation: 169%
